Values of other authors in patent publication US20230310464A1, “USE OF C[…] THE TREATMENT OF SEIZURES ASSOCIATED WITH RARE […] SYNDROMES RELATED TO BRAIN INJURY” (GW Research Limited, priority 2020, published 2023).

System: new-born piglets with HIE
Details: Alvarez et al. (2008); cited from earlier work

SMILES: C=C(C)[C@@H]1CCC(C)=C[C@H]1c1c(O)cc(CCCCC)cc1O [CBD, cannabidiol]
- effect on seizures in piglets (in words): A reduction in seizures was reported
- proportion of CBD-treated piglets that still maintained significant seizures: half
